Reference: patent US11944624B2, “Peptide and small molecule agonists of EphA and their uses” (CASE WESTERN RESERVE UNIVERSITY, priority 2017, dated 2024)
“Also recorded” adds a separate entry of the source.

Tests used:
[1] = molecular target: T1, EphA2 (Homo sapiens, UniProt P29317); assay: EphA2 activation in MDA-MB-231-A2 cells (phosphorylated/total EphA2, Example 2); format: cell-based; parameters: expressed in transfected cells; host or cells: MDA-MB-231 (MDA-231-A2 / MDA-MB-231-A2), puromycin selected; details: MDA-MB-231-A2 cells, 2, 10 and 50 μM, 30 min
Procedure: To evaluate the compounds, we utilized a MDA-MB-231 breast cancer cell line which overexpresses EphA2 receptor (MDA-MB-231-A2). The ratio of phosphorylated EphA2 protein over total EphA2 protein was measured after treatment with the various compounds as the readout for receptor activation. All the compounds were examined with doses of 2, 10, and 50 μM, and we used 50 μM Doxazosin and 0.5% DMSO as the positive and negative control, respectively (FIG. 27). […] Inspired by the dimer design, we also generated dimer structure based on the piperazine ring as the core as illustrated by compounds 25 and 26.
MDA-MB-231 EphA2-overexpressing cells were plated in 12-well dishes at a density of 100,000 cells/well and grown for 24 hours prior to stimulation with appropriate compounds and ephrins for 30 min and 10 min, respectively. Compounds were prepared in DMSO at 200 times the final concentrations and 0.5% DMSO was used as vehicle control. Following treatment, cells were washed and lysed in modified RIPA Buffer (20 mM Tris-HCl pH 7.4, 20 mM NaF, 150 mM NaCl, 10% glycerol, 0.1% SDS, 0.5% DCA, 2 mM EDTA, 1% Triton X-100, 2 mM Na3VO4, and protease inhibitors, including 1 mM phenylmethylsulphonyl fluoride, and 2 μg/ml each of aprotinin and leupeptin) for 20 min, followed by immunoprecipitation. For immunoprecipitation, lysates were combined with 10 μg of ephrin-A1-Fc and 10-15 μl of Gamma-Bind Protein G beads (GE Healthcare Bioscience, Pittsburgh, PA) and rotated for 3 hours at 4° C. 10 μg of human unconjugated Fc was used as a negative control. Beads were pelleted at 9,000 rpm for 2 min at 4° C., and washed twice with 1 ml of IP Wash Buffer (20 mM Tris, pH 7.4, 10% glycerol, 50 mM NaCl, 0.2% Triton X-100, 0.5 mM Na3VO4, 0.5 mM PMSF). All wash buffer was removed and beads were resuspended in 25 μl of 4× LDS Loading Buffer (Thermo Fisher, Grand Island, NY) with 4 μl of 10× Bolt Sample Reducing Agent (Thermo Fisher), followed by Western Blotting. Samples were boiled 5 min and run on 4-12% Bis-Tris Plus gels (Thermo Fisher), followed by transfer to Immobilon-P PVDF membranes (Millipore, Billerica, MA). Membranes were blocked 1 hr at room temperature in 3% BSA in TBS containing 0.05% Tween-20 (TBS-T) followed by overnight incubation with pEphA/B (1:500) and EphA2 (Santa Cruz) (1:1000) primary antibodies. Membranes were washed in TBS-T and incubated with goat anti-rabbit-HRP (1:5000) secondary antibody 1 hr at room temperature, followed by washing and developing with Luminol Reagent (Santa Cruz). Band intensities were quantified using Quantity One software (Bio-Rad, Hercules, CA).

[2] = tested on: MDA-MB-231 cells; assay: Clonogenic (colony formation) assay; format: cell-based; details: 0.08-10 μM, 14 days
Procedure: MDA-MB-231 cells (1000 cells/well) were seeded in 12-well plates and cultured for 24 h, followed by treatment with various concentrations of the Doxazosin analogs (0, 0.08, 0.4, 2 and 10 μM) in 0.5% DMSO for 14 days. After washing with PBS, colonies were fixed in 4% paraformaldehyde in PBS, washed in 20% methanol, and stained with 0.5% crystal violet.

[3] = molecular target: T1, EphA2; assay: EphA2 internalization in MDA-MB-231 cells (immunofluorescence, Example 2); format: cell-based; parameters: expressed in transfected cells; host or cells: MDA-MB-231 (MDA-231-A2 / MDA-MB-231-A2), puromycin selected; details: 1 hr, doses 0.4, 2, 10, 50 μM
Procedure: This was performed using the MDA-MB-231 cell line. This cell line spreads well in culture, thereby facilitating immunofluorescence detection of cell surface and intracellular EphA2 (FIG. 28). […] MDA-MB-231 cells were plated in 24-well plates on 10 mm square coverslips coated with 10 μg/ml fibronectin and incubated 24-48 hrs before treatment with 50 μM Doxazosin and various doses of compound 27 (0.4, 2, 10, 50 μM) in 0.5% DMSO for 1 hr. As another positive control, cells were treated with 2 μg/ml ephrin-A1-Fc. Cells were then washed with PBS and fixed with 4% paraformaldehyde (Electron Microscopy Sciences, Hatfield, PA) on ice for 10 min, followed by washing and permeabilization with 0.4% NP-40 for 10 min on ice. […] Cells were then incubated in primary mouse EphA2 antibody (D7, 1:100) in 0.1% BSA/PBS for 1 hr at room temperature, washed in PBS and BSA/PBS, followed by incubation in secondary donkey anti-mouse Alexa Fluor 488 antibody (1:300) in BSA/PBS for 30 min at room temperature. Cells were washed in PBS and BSA/PBS, followed by mounting in DAPI Mounting Medium (Electron Microscopy Sciences). Images were taken with a Leica microscope.

[4] = molecular target: T2, rat α1a adrenergic receptor (Rattus norvegicus, UniProt P43140); assay: Adrenoceptor binding, [3H]-prazosin competition; details: [3H]-prazosin 0.25 nM, triplicate, mean±SD; read-out: IC50, α-adrenoceptor binding
T2 construct: Eurofins Panlabs Taiwan, Ltd. (contract assay)
T2 sequence (P43140 1-466): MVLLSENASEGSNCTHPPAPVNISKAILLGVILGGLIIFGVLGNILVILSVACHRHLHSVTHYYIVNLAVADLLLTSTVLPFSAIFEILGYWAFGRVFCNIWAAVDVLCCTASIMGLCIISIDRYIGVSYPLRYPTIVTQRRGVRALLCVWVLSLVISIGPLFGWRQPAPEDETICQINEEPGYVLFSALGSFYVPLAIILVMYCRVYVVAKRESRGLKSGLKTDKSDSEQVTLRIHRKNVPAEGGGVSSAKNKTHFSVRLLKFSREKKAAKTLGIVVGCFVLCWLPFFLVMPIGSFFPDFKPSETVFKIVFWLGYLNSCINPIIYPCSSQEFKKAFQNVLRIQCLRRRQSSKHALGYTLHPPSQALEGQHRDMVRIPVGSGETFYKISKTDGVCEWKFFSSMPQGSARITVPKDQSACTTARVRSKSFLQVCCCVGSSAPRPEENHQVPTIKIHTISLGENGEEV
Procedure: Analysis of Doxazosin and analog binding to rat α1a adrenergic receptor was performed by Eurofins Panlabs Taiwan, Ltd. (Taiwan). [^3H]-prazosin at 0.25 nM was used as the radioligand. […] Non-specific binding was defined by use of 10 μM phentolamine. Incubations were terminated by vacuum filtration over 0.1% PEI pretreated glass fiber filters and filters were washed for 10 s with ice cold 0.1M NaCl and radioactivity retained on the filters was determined by liquid scintillation spectrometry. IC50 values were determined by a non-linear regression analysis using GraphPad Prism v.5 (GraphPad).

T1 sequence (P29317 24-976): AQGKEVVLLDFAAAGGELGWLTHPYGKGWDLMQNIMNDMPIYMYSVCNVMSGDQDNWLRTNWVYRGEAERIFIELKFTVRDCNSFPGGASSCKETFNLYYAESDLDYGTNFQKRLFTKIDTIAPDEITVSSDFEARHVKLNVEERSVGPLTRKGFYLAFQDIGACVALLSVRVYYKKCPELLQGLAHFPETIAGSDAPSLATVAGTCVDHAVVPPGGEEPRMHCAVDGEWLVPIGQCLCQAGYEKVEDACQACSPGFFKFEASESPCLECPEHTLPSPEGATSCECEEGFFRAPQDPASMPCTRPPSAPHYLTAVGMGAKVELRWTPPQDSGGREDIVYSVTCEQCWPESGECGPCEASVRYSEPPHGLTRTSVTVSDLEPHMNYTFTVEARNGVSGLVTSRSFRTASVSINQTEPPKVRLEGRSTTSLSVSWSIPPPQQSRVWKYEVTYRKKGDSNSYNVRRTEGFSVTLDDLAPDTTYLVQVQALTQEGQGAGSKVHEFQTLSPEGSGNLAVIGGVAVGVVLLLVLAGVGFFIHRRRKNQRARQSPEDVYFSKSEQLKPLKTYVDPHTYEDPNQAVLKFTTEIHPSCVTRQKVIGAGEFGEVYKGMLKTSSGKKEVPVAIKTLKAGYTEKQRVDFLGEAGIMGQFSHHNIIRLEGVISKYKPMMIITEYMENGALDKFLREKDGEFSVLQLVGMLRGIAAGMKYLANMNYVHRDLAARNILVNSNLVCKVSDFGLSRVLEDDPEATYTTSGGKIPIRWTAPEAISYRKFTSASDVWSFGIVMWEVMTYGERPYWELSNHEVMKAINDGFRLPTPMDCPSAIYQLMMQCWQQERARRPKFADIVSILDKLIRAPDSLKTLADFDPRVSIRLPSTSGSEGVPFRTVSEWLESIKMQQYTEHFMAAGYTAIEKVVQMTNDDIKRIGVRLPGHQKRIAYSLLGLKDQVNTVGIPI

Structure (SMILES): CSc1ccc(C(=O)N2CCN(C(=O)c3ccc(SC)cc3)CC2)cc1 [Compound 26, piperazine-1,4-diylbis((4-(methylthio)phenyl)methanone)]
- EphA2 activation compared to 50 μM Doxazosin [1]: significantly decreased activity

Structure (SMILES): COc1cc2nc(N3CCN(C(=O)Cc4ccc(OCc5ccccc5)cc4)CC3)nc(NC(C)=O)c2cc1OC [Compound 30, N-(2-(4-(2-(4-(benzyloxy)phenyl)acetyl)piperazin-1-yl)-6,7-dimethoxyquinazolin-4-yl)acetamide]
- EphA2 activation compared to 50 μM Doxazosin [1]: significantly diminishes the activity

Structure (SMILES): CCCCCC(=O)N1CCN(c2nc(N)c3cc(OC)c(OC)cc3n2)CC1 [Compound 23, 1-(4-(4-amino-6,7-dimethoxyquinazolin-2-yl)piperazin-1-yl)hexan-1-one]
- inhibition of colony formation [2]: moderate activity to inhibit the colony formation
- EphA2 activation compared to 50 μM Doxazosin [1]: slightly decreased activity

Structure (SMILES): COc1cc2nc(N3CCN(C(=O)CCCCC(=O)N4CCN(c5nc(N)c6cc(OC)c(OC)cc6n5)CC4)CC3)nc(N)c2cc1OC [Compound 28, 1,6-bis(4-(4-amino-6,7-dimethoxyquinazolin-2-yl)piperazin-1-yl)hexane-1,6-dione]
- EphA2 activation compared to 50 μM Doxazosin [1]: does not show any activity to activate EphA2

Structure (SMILES): COc1cc2nc(N3CCN(C(=O)c4ccc5ccccc5c4)CC3)nc(N)c2cc1OC [Compound 1, (4-(4-amino-6,7-dimethoxyquinazolin-2-yl)piperazin-1-yl)(naphthalen-2-yl)methanone]
- EphA2 activation compared to 50 μM Doxazosin [1]: higher activity than compound 3; also recorded: did not show a much higher activity than the lead compound Doxazosin

Structure (SMILES): COc1cc2nc(N3CCN(C(=O)Cc4ccc(OCc5ccccc5)cc4)CC3)nc(N3CCCCC3)c2cc1OC [Compound 31, 2-(4-(benzyloxy)phenyl)-1-(4-(6,7-dimethoxy-4-(piperidin-1-yl)quinazolin-2-yl)piperazin-1-yl)ethanone]
- EphA2 activation compared to 50 μM Doxazosin [1]: harm the EphA2 activation

Structure (SMILES): COc1cc2nc(N3CCN(C(=O)CCCCCCCCCCC(=O)N4CCN(c5nc(N)c6cc(OC)c(OC)cc6n5)CC4)CC3)nc(N)c2cc1OC [Compound 27, 1,12-bis(4-(4-amino-6,7-dimethoxyquinazolin-2-yl)piperazin-1-yl)dodecane-1,12-dione]
- concentration at which EphA2 internalization happened [3]: 0.4 µM
- inhibition of colony formation [2]: inhibited colony formation even at nanomolar concentrations; also recorded: inhibit the colony formation; also recorded: inhibits cancer cell colony formation
- EphA2 activation compared to 50 μM Doxazosin [1]: superior activity within the new compound pool; also recorded: significantly increased activity compared to Doxazosin; also recorded: the most active one in the SAR study; also recorded: improved EphA2 activation compared to Doxazosin
- IC50 [4]: 2.5 ± 1.62 nM

Structure (SMILES): COc1cc2nc(N3CCN(C(=O)C4COc5ccccc5O4)CC3)nc(NC(C)=O)c2cc1OC (centres unmarked) [Compound 29, N-(2-(4-(2,3-dihydrobenzo[b][1,4]dioxine-2-carbonyl)piperazin-1-yl)-6,7-dimethoxyquinazolin-4-yl)acetamide]
- EphA2 activation compared to 50 μM Doxazosin [1]: significantly diminishes the activity

Structure (SMILES): COc1cc2nc(N3CCN(C(=O)Cc4ccc(OCc5ccccc5)cc4)CC3)nc(N3CCCC3)c2cc1OC [Compound 32, 2-(4-(benzyloxy)phenyl)-1-(4-(6,7-dimethoxy-4-(pyrrolidin-1-yl)quinazolin-2-yl)piperazin-1-yl)ethanone]
- EphA2 activation compared to 50 μM Doxazosin [1]: harm the EphA2 activation

Structure (SMILES): CCOc1cc2nc(N3CCN(C(=O)Cc4ccc(OCc5ccccc5)cc4)CC3)nc(N)c2cc1OCC [Compound 33, 1-(4-(4-amino-6,7-diethoxyquinazolin-2-yl)piperazin-1-yl)-2-(4-(benzyloxy)phenyl)ethanone]
- EphA2 activation compared to 50 μM Doxazosin [1]: diminishes the activity

Structure (SMILES): COc1cc2nc(N3CCN(C(=O)Cc4ccc(OCc5ccccc5)cc4)CC3)nc(N)c2cc1OC [Compound 24, 1-(4-(4-amino-6,7-dimethoxyquinazolin-2-yl)piperazin-1-yl)-2-(4-(benzyloxy)phenyl)ethanone]
- inhibition of colony formation [2]: slightly weaker activity compared to compound 27; also recorded: inhibit the colony formation
- EphA2 activation compared to 50 μM Doxazosin [1]: potent EphA2 activation; also recorded: improved EphA2 activation compared to Doxazosin
- IC50 [4]: 4.28 ± 3.1 nM

Structure (SMILES): COc1cc2nc(N3CCN(C(=O)c4ccc(Cl)c([N+](=O)[O-])c4)CC3)nc(N)c2cc1OC [Compound 13, (4-(4-amino-6,7-dimethoxyquinazolin-2-yl)piperazin-1-yl)(4-chloro-3-nitrophenyl)methanone]
- EphA2 activation compared to 50 μM Doxazosin [1]: decreases the activity

Structure (SMILES): COc1cc2nc(N3CCN(C(=O)c4cccc(-c5ccccc5)c4)CC3)nc(N)c2cc1OC [Compound 2, [1,1′-biphenyl]-3-yl(4-(4-amino-6,7-dimethoxyquinazolin-2-yl)piperazin-1-yl)methanone]
- EphA2 activation compared to 50 μM Doxazosin [1]: higher activity than compound 3; also recorded: did not show a much higher activity than the lead compound Doxazosin

Structure (SMILES): COc1ccc(C(=O)N2CCN(C(=O)c3ccc(OC)cc3)CC2)cc1 [Compound 25, piperazine-1,4-diylbis((4-methoxyphenyl)methanone)]
- EphA2 activation compared to 50 μM Doxazosin [1]: significantly decreased activity
